Measurements reported in patent US6837977B1, “Capillary electrophoresis method for screening for affinity ligands using a detectable competitive ligand” (Cetek Corporation, priority 1999, dated 2005).

What was measured:
thrombin [1] = target: T1, thrombin (Homo sapiens, UniProt P00734); details: binding to thrombin; stated for known ligands; cited from earlier work
thrombin [2] = target: T1, thrombin; assay: competitive-binding capillary electrophoresis screening with fluorescently labeled competitive ligand (FCL); details: for FCL/TG complex peak: FIG. 1
Method: Also prepared is 100 nM of a fluorescently labeled, tight-binding competitive ligand, single-stranded (ss) DNA oligonucleotide 5′-fluorescein-GGTTGGTGTGGTTGG-3′ (Kd=3×10^−9 M; hereinafter “FCL”). The mixture of target and candidate ligand (TG/LG) is first injected into the CE instrument for about ten (10) seconds to give a first plug, followed by a 10-second injection of FCL as the second plug.
Voltage of about 20 kV is applied to initiate electrophoresis, and the unbound competitive ligand (FCL) and bound FCL/TG complex peaks are monitored during CE by means of laser-induced fluorescence and a fluorescence detector positioned at a detection point along the capillary.
Here the thrombin target (TG) is incubated, prior to CE, for five minutes with samples containing hirugen and hirulog-1 at different concentrations. Each of these target/sample mixtures is subjected to a CE screening run, as follows. A plug of target/sample mixture is pressure-injected into the CE instrument for 10 seconds to give a first-injected plug. A second injection plug of 100 nM FCL is then injected for 10 seconds, and then voltage of about 20 kV is applied to start electrophoresis. The CE migration of the FCL and FCL/TG complex are monitored by way of laser-induced fluorescence. Again, the FCL has a higher electrophoretic mobility than the TG, so that the unbound FCL peak appears before that of the FCL/TG complex (see FIG. 2).

Row | Substance | Kd (thrombin [1]) | FCL/TG complex peak (thrombin [2]; 50 nM hirulog-1 in sample, equivalent to 50 nM thrombin, 100 nM FCL) | FCL/TG peak (thrombin [2]; hirulog-1 in samples also containing hirugen, 100 nM FCL, FIG. 2) | FCL/TG complex peak (thrombin [2]; increasing concentrations of hirulog-1, 50 nM thrombin pre-incubated 5 min, 100 nM FCL, 20 kV) | molar excess of weak-binding hirugen at which the hirulog-1 signal is detectable (thrombin [2]; samples containing hirugen and hirulog-1, FIG. 2) | change in competitive ligand's (FCL's) CE profile (thrombin [2]; pre-incubation of thrombin with 10,000 nM hirugen, 100 nM FCL, FIG. 2)
1 | 5′-fluorescein-GGTTGGTGTGGTTGG-3′ [FCL] | 3 nM | – | – | – | – | –
2 | D-Phe-Pro-Arg-Pro-(Gly)4-Asn-Gly-Asp-Phe-Glu-Glu-Ile-Pro-Glu-Glu-Tyr-Leu [hirulog-1] | ~2 nM | complete disappearance | decrease | reduced | up to 1,000 fold | –
3 | Gly-54-Leu-65 carboxyterminal dodecapeptide of hirudin with sulfated tyrosine [hirugen] | 150 nM | – | – | – | – | no difference
